Legend:
SIK (SIK1) = SIK (SIK1) (Homo sapiens (Human), UniProt P57059); experiment: KINOMEscan scanMAX; format: binding; conditions: 2000 nM; read-out: Percent Control
SLK = SLK (Homo sapiens (Human), UniProt Q9H2G2); experiment: KINOMEscan scanMAX; format: binding; conditions: 2000 nM; read-out: Percent Control
DDR2 = DDR2 (Homo sapiens (Human), UniProt Q16832); experiment: KINOMEscan scanMAX; format: binding; conditions: 2000 nM; read-out: Percent Control
PRKD2 = PRKD2 (Homo sapiens (Human), UniProt Q9BZL6); experiment: KINOMEscan scanMAX; format: binding; conditions: 2000 nM; read-out: Percent Control
FYN = FYN (Homo sapiens (Human), UniProt P06241); experiment: KINOMEscan scanMAX; format: binding; conditions: 2000 nM; read-out: Percent Control
CSNK1E = CSNK1E (Homo sapiens (Human), UniProt P49674); experiment: KINOMEscan scanMAX; format: binding; conditions: 2000 nM; read-out: Percent Control
TYRO3 = TYRO3 (Homo sapiens (Human), UniProt Q06418); experiment: KINOMEscan scanMAX; format: binding; conditions: 2000 nM; read-out: Percent Control
DAPK1 = DAPK1 (Homo sapiens (Human), UniProt P53355); experiment: KINOMEscan scanMAX; format: binding; conditions: 2000 nM; read-out: Percent Control
[1] = target: PFPK5(P.falciparum) (MAL13P1.279) (Plasmodium falciparum (isolate 3D7), UniProt P61075); experiment: KINOMEscan scanMAX; format: binding; conditions: 2000 nM; read-out: Percent Control
CDK19 = CDK19 (Homo sapiens (Human), UniProt Q9BWU1); experiment: DiscoverX Kd assay
ULK1 = ULK1 (Homo sapiens (Human), UniProt O75385); experiment: KINOMEscan scanMAX; format: binding; conditions: 2000 nM; read-out: Percent Control
DDR1 = DDR1 (Homo sapiens (Human), UniProt Q08345); experiment: KINOMEscan scanMAX; format: binding; conditions: 2000 nM; read-out: Percent Control
EPHA2 = EPHA2 (Homo sapiens (Human), UniProt P29317); experiment: KINOMEscan scanMAX; format: binding; conditions: 2000 nM; read-out: Percent Control
[2] = target: RSK3(Kin.Dom.2-C-terminal) (RPS6KA2) (Homo sapiens (Human), UniProt Q15349); experiment: KINOMEscan scanMAX; format: binding; conditions: 2000 nM; read-out: Percent Control
ADCK4 = ADCK4 (Homo sapiens (Human), UniProt Q96D53); experiment: KINOMEscan scanMAX; format: binding; conditions: 2000 nM; read-out: Percent Control
GRK3 (ADRBK2) = GRK3 (ADRBK2) (Homo sapiens (Human), UniProt P35626); experiment: KINOMEscan scanMAX; format: binding; conditions: 2000 nM; read-out: Percent Control
MKK7 (MAP2K7) = MKK7 (MAP2K7) (Homo sapiens (Human), UniProt O14733); experiment: KINOMEscan scanMAX; format: binding; conditions: 2000 nM; read-out: Percent Control
TBK1 = TBK1 (Homo sapiens (Human), UniProt Q9UHD2); experiment: KINOMEscan scanMAX; format: binding; conditions: 2000 nM; read-out: Percent Control
PIP5K2B (PIP4K2B) = PIP5K2B (PIP4K2B) (Homo sapiens (Human), UniProt P78356); experiment: KINOMEscan scanMAX; format: binding; conditions: 2000 nM; read-out: Percent Control
RIOK3 = RIOK3 (Homo sapiens (Human), UniProt O14730); experiment: KINOMEscan scanMAX; format: binding; conditions: 2000 nM; read-out: Percent Control
[3] = test system: 4T1 murine triple-negative breast cancer; experiment: 4T1 breast cancer metastasis survival model; format: in vivo; conditions: 40 mg/kg, oral, b.i.d., female Balb/c mice after primary tumor removal
Description: 4T1 is a murine triple-negative breast cancer (TNBC) cell line, which is highly metastatic to the lungs. 4T1 cells were injected orthotopically in the mammary fat pad of female Balb/c mice and the primary tumors were surgically removed when tumor sizes reach 500-600 mm^3. Mice were then separated into two groups (FIG. 12A, n=8), which were then treated with vehicle (5% dextrose) or Senexin C (40 mg/kg, oral, b.i.d.).

STK33 = STK33 (Homo sapiens (Human), UniProt Q9BYT3); experiment: KINOMEscan scanMAX; format: binding; conditions: 2000 nM; read-out: Percent Control
WNK4 = WNK4 (Homo sapiens (Human), UniProt Q96J92); experiment: KINOMEscan scanMAX; format: binding; conditions: 2000 nM; read-out: Percent Control
PIK3CA(M1043I) = PIK3CA(M1043I) (Homo sapiens (Human), UniProt P42336, M1043I); experiment: KINOMEscan scanMAX; format: binding; conditions: 2000 nM; read-out: Percent Control
RET(M918T) = RET(M918T) (Homo sapiens (Human), UniProt P07949, M918T); experiment: KINOMEscan scanMAX; format: binding; conditions: 2000 nM; read-out: Percent Control
RAF1 = RAF1 (Homo sapiens (Human), UniProt P04049); experiment: KINOMEscan scanMAX; format: binding; conditions: 2000 nM; read-out: Percent Control
NDR2 (STK38L) = NDR2 (STK38L) (Homo sapiens (Human), UniProt Q9Y2H1); experiment: KINOMEscan scanMAX; format: binding; conditions: 2000 nM; read-out: Percent Control
PLK1 = PLK1 (Homo sapiens (Human), UniProt P53350); experiment: KINOMEscan scanMAX; format: binding; conditions: 2000 nM; read-out: Percent Control
BRAF = BRAF (Homo sapiens (Human), UniProt P15056); experiment: KINOMEscan scanMAX; format: binding; conditions: 2000 nM; read-out: Percent Control
SNRK = SNRK (Homo sapiens (Human), UniProt Q9NRH2); experiment: KINOMEscan scanMAX; format: binding; conditions: 2000 nM; read-out: Percent Control
NEK3 = NEK3 (Homo sapiens (Human), UniProt P51956); experiment: KINOMEscan scanMAX; format: binding; conditions: 2000 nM; read-out: Percent Control
FGFR1 = FGFR1 (Homo sapiens (Human), UniProt P11362); experiment: KINOMEscan scanMAX; format: binding; conditions: 2000 nM; read-out: Percent Control
FLT3 = FLT3 (Homo sapiens (Human), UniProt P36888); experiment: KINOMEscan scanMAX; format: binding; conditions: 2000 nM; read-out: Percent Control
CAMKK1 = CAMKK1 (Homo sapiens (Human), UniProt Q8N5S9); experiment: KINOMEscan scanMAX; format: binding; conditions: 2000 nM; read-out: Percent Control
FER = FER (Homo sapiens (Human), UniProt P16591); experiment: KINOMEscan scanMAX; format: binding; conditions: 2000 nM; read-out: Percent Control
PRKG1 = PRKG1 (Homo sapiens (Human), UniProt Q13976); experiment: KINOMEscan scanMAX; format: binding; conditions: 2000 nM; read-out: Percent Control
PIK3CA = PIK3CA (Homo sapiens (Human), UniProt P42336); experiment: KINOMEscan scanMAX; format: binding; conditions: 2000 nM; read-out: Percent Control
BRAF(V600E) = BRAF(V600E) (Homo sapiens (Human), UniProt P15056, V600E); experiment: KINOMEscan scanMAX; format: binding; conditions: 2000 nM; read-out: Percent Control

GRK3 (ADRBK2), sequence (P35626 whole entry): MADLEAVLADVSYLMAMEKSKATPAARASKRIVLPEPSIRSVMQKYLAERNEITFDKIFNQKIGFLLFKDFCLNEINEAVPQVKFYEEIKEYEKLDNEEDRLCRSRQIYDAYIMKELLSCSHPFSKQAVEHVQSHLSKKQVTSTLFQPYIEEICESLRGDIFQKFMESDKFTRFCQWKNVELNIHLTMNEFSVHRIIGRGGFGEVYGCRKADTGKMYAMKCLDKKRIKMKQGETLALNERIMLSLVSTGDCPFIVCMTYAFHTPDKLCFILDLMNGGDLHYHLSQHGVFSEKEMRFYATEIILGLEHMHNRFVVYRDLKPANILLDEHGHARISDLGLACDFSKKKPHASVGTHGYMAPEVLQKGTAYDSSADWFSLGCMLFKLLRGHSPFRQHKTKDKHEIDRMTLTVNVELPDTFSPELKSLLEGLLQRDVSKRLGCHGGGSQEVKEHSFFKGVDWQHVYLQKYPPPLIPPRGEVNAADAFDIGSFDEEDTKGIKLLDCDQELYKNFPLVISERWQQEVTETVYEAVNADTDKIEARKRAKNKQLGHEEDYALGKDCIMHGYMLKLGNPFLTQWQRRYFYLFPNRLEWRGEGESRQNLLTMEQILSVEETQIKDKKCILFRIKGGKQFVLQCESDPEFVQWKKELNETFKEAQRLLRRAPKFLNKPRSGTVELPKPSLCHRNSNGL
PRKG1, sequence (Q13976 whole entry): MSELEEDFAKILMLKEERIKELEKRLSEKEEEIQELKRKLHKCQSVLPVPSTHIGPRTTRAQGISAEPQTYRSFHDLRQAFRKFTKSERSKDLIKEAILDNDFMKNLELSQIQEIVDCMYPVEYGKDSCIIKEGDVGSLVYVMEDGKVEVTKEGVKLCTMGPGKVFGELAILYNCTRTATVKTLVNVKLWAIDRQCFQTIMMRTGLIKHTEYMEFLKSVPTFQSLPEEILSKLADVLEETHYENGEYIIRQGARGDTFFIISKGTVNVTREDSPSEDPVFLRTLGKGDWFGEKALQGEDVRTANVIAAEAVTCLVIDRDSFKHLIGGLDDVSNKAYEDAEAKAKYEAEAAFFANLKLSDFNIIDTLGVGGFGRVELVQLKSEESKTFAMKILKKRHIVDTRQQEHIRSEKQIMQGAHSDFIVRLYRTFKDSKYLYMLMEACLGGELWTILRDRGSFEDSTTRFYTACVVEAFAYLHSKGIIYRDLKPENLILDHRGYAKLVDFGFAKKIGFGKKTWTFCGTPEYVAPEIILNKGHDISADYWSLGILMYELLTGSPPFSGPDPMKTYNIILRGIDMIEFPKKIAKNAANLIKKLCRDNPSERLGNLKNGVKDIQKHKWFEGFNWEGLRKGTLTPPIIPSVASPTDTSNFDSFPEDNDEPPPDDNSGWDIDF
ADCK4, sequence (Q96D53 whole entry): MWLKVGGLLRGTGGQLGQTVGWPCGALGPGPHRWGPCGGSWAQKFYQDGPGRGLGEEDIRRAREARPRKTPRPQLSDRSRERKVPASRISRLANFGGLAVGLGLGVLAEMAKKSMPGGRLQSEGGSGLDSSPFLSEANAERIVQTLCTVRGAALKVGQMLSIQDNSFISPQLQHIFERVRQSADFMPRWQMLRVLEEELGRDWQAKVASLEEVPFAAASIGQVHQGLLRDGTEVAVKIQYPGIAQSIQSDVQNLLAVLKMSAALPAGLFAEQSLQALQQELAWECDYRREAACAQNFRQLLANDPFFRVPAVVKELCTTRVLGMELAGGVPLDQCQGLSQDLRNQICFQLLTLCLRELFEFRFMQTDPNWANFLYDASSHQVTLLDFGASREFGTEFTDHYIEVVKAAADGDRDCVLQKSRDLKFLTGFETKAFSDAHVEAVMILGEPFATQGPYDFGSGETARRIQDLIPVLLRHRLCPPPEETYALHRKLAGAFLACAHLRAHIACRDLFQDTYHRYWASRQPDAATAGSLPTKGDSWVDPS
NEK3, sequence (P51956 whole entry): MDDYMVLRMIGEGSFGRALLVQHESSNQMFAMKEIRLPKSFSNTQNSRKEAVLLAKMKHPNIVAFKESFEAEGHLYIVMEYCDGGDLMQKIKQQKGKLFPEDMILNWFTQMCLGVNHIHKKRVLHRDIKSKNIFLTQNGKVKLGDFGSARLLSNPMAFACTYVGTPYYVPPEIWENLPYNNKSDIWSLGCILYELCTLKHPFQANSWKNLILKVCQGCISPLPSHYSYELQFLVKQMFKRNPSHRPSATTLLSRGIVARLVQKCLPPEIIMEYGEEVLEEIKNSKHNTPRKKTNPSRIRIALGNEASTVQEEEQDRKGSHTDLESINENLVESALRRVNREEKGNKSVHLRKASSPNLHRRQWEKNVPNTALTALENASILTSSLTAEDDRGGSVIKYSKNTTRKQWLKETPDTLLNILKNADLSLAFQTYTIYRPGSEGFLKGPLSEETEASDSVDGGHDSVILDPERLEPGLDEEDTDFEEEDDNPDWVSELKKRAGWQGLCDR
DDR1, sequence (Q08345 19-913): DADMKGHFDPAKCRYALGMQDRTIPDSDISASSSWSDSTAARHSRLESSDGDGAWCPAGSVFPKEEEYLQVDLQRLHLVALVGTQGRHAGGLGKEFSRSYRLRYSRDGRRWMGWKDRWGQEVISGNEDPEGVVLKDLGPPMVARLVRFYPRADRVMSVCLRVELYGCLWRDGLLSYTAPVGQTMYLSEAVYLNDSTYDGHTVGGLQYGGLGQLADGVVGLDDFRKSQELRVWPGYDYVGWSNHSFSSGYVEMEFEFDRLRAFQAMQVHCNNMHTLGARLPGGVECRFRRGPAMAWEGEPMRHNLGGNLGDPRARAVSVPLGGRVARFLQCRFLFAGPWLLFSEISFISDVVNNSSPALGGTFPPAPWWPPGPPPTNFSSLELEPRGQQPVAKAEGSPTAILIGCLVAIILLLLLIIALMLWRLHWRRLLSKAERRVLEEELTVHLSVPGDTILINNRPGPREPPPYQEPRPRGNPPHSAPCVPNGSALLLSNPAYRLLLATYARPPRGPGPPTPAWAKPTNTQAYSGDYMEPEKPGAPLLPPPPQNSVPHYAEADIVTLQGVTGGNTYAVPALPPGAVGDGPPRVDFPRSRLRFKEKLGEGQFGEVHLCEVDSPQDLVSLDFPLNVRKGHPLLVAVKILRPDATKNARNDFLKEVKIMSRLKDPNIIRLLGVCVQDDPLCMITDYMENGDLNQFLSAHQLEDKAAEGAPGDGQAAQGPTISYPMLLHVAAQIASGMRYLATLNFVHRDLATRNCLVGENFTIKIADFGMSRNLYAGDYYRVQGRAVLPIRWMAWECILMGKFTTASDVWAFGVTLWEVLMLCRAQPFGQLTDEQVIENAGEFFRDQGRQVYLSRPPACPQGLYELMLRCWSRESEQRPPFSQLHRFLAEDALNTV
TYRO3, sequence (Q06418 41-890): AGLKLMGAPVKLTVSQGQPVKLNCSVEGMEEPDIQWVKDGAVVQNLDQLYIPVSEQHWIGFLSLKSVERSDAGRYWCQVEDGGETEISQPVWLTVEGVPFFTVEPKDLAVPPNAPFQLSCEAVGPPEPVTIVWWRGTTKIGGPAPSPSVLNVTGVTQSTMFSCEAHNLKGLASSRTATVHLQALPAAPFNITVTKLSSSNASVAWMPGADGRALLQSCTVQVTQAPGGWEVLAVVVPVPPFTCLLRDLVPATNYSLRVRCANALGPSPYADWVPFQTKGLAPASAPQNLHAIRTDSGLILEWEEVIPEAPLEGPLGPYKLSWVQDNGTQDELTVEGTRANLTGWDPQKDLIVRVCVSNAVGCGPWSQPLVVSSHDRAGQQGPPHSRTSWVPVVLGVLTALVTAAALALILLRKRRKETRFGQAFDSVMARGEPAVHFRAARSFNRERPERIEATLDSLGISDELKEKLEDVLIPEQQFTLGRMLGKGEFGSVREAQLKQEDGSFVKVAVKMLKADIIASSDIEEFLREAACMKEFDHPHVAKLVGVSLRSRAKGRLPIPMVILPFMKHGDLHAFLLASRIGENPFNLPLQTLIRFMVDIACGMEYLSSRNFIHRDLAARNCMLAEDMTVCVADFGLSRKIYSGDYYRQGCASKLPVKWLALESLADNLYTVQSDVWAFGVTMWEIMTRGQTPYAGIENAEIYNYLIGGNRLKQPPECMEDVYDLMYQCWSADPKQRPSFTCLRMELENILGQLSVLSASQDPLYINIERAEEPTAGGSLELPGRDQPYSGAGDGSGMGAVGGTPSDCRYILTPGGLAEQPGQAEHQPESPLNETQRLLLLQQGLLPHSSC
RAF1, sequence (P04049 whole entry): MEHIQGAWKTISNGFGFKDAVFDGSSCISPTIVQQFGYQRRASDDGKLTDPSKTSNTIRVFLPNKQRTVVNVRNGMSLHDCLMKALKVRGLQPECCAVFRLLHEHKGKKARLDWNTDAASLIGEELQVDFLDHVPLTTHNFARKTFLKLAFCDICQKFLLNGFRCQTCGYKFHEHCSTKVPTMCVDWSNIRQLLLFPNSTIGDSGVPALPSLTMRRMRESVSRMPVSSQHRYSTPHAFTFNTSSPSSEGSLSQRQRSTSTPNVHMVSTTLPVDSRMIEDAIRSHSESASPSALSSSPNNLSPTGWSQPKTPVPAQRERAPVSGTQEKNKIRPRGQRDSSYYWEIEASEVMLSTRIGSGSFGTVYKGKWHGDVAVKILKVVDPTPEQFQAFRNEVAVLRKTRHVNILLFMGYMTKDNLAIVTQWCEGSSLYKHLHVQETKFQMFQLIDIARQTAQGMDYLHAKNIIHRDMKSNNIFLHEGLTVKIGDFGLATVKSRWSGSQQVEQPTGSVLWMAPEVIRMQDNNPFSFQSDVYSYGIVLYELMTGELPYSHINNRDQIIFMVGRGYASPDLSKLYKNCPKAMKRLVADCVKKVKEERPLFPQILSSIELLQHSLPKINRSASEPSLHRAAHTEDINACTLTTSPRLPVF

CN1CCN(C(=O)c2ccc3cc(CCNc4ccnc5ccc(C#N)cc45)ccc3c2)CC1 [compound 6148, 4-((2-(6-(4-methylpiperazine-1-carbonyl)naphthalen-2-yl)ethyl)amino)quinoline-6-carbonitrile]
remaining binding at 2 µM (SIK (SIK1)): 91% | remaining binding at 2 µM (SLK): 92% | remaining binding at 2 µM (DDR2): 64% | remaining binding at 2 µM (PRKD2): 88% | remaining binding at 2 µM (FYN): 89% | remaining binding at 2 µM (CSNK1E): 81% | remaining binding at 2 µM (TYRO3): 77% | remaining binding at 2 µM (DAPK1): 100% | remaining binding at 2 µM [1]: 70% | Kd (CDK19): 44 nM | remaining binding at 2 µM (ULK1): 66% | remaining binding at 2 µM (DDR1): 100% | remaining binding at 2 µM (EPHA2): 100% | remaining binding at 2 µM [2]: 91% | remaining binding at 2 µM (ADCK4): 97% | remaining binding at 2 µM (GRK3 (ADRBK2)): 73% | remaining binding at 2 µM (MKK7 (MAP2K7)): 75% | remaining binding at 2 µM (TBK1): 88% | remaining binding at 2 µM (PIP5K2B (PIP4K2B)): 85% | remaining binding at 2 µM (RIOK3): 85% | Mouse survival of the metastatic disease [3]: significantly increased | remaining binding at 2 µM (STK33): 93% | remaining binding at 2 µM (WNK4): 69% | remaining binding at 2 µM (PIK3CA(M1043I)): 80% | remaining binding at 2 µM (RET(M918T)): 85% | remaining binding at 2 µM (RAF1): 98% | remaining binding at 2 µM (NDR2 (STK38L)): 96% | remaining binding at 2 µM (PLK1): 63% | remaining binding at 2 µM (BRAF): 84% | remaining binding at 2 µM (SNRK): 75% | remaining binding at 2 µM (NEK3): 60% | remaining binding at 2 µM (FGFR1): 85% | remaining binding at 2 µM (FLT3): 89% | remaining binding at 2 µM (CAMKK1): 100% | remaining binding at 2 µM (FER): 91% | remaining binding at 2 µM (PRKG1): 100% | remaining binding at 2 µM (PIK3CA): 90% | remaining binding at 2 µM (BRAF(V600E)): 89%
